≈ marks a conversion by molar mass, not a printed value. Where two headings read alike, the source gives them in different places. Positions of bridges follow the written chain, without caps; N, C: chain ends. Non-standard residues stand in square brackets, D forms with d. Residues, ends and D or L forms follow the SMILES beside them. Lys(N3) = [N-]=[N+]=NCCCC[C@H](N)C(=O)O; R8 = C=CCCCCCC[C@@](C)(N)C(=O)O; Cba = N[C@@H](CC1CCC1)C(=O)O; S5 = C=CCCC[C@](C)(N)C(=O)O; βAla = NCCC(=O)O
Key:
[1] = Lactate dehydrogenase (LDH) release assay; assay type: cell-based
Outline: (§1)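 Membrane damage measured as lactate dehydrogenase release (CytoTox-ONE kit) from p53-responsive β-lactamase reporter HCT116 cells plated at 8000 per well. Final DMSO 0.5%; geometric mean reported from a minimum of three biological replicates.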

[2] = Solubility assay (kinetic solubility, PBS pH 7); assay type: physicochemical; conditions: read-out: Solubility
Outline: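 Quantitation uses an external standard at 100 µM, prepared from 10 mM stock in acetonitrile:methanol:DMSO (10:80:10). Solubility (µM) = (peak area of sample ÷ peak area of standard) × standard concentration.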

[3] = in vitro
Outline: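 Azido-peptide permeability was read as loss of NanoBRET signal (donor 450 nm, acceptor 610 nm) after adding NanoBret618-azide at 10 μM final.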

[4] = physchem
[5] = Experimental LogD (partition coefficient); conditions: not stated, Partition Coeff LogD
[6] = tested on: HCT116 cells; assay: Lactate dehydrogenase (LDH) release assay; assay type: cell-based
Outline: as §1

[7] = pH 7, aqueous buffer, kinetic from dmso stock, pH 7, PBS
[8] = Nanoclick permeability assay EC50

| Compound | EC50 ([1]; LDH: Cytotoxicity assay EC50) | solubility kinetic [2, 7] | cell entry EC50 [3, 8] | EPSA [4] | logD [5] | EC50 ([1]; 0% FBS 4Hr, read-out: LDH: Cytotoxicity assay EC50) | EC50 ([1]; 10% FBS 4Hr, read-out: LDH: Cytotoxicity assay EC50) | LDH: Cytotoxicity assay % Effect ([6]; 0% FBS 4Hr) | LDH: Cytotoxicity assay % Effect ([6]; 10% FBS 4Hr) | solubility kinetic [2] | cell entry EC50 [3] |
| --- | --- | --- | --- | --- | --- | --- | --- | --- | --- | --- | --- |
| CC(=O)N[C@@H](CCCCN=[N+]=[N-])C(=O)NCCC(=O)N[C@@H](CC(C)C)C(=O)NC(C)(C)C(=O)N[C@@H](Cc1ccccc1)C(=O)N[C@]1(C)CCCCCCC=CCCC[C@@](C)(C(=O)N[C@@H](CO)C(=O)N[C@@H](C)C(=O)N[C@@H](C)C(N)=O)NC(=O)[C@H](CC2CCC2)NC(=O)[C@H](CCC(N)=O)NC(=O)[C@H](C)NC(=O)[C@H](Cc2c[nH]c3ccccc23)NC(=O)[C@H](Cc2ccc(O)cc2)NC(=O)[C@H](CCC(=O)O)NC1=O [MP-169] | > 50000 nM | 61.5 µM (≈ 120 µg/mL) | 253 nM | 227 A^2 | 3.06 | – | – | – | – | – | – |
| CC(=O)N[C@@H](CCCCN=[N+]=[N-])C(=O)NCCC(=O)N[C@@H](CC(C)C)C(=O)N[C@H](C(=O)N[C@@H](Cc1ccccc1)C(=O)N[C@]1(C)CCCCCCC=CCCC[C@@](C)(C(=O)N[C@@H](CO)C(=O)N[C@@H](C)C(=O)N[C@@H](C)C(N)=O)NC(=O)[C@H](CC2CCC2)NC(=O)[C@H](CCC(N)=O)NC(=O)C(C)(C)NC(=O)[C@H](Cc2c[nH]c3ccccc23)NC(=O)[C@H](Cc2ccc(O)cc2)NC(=O)[C@H](CCC(=O)O)NC1=O)[C@@H](C)O [MP-170] | > 50000 nM | 92.5 µM (≈ 184 µg/mL) | 549 nM | 225 A^2 | 2.85 | – | – | – | – | – | – |
| CC(=O)N[C@@H](CCCCN=[N+]=[N-])C(=O)NCCC(=O)N[C@@H](CC(C)C)C(=O)N[C@H](C(=O)N[C@@H](Cc1ccccc1)C(=O)N[C@]1(C)CCCCCCC=CCCC[C@@](C)(C(=O)N[C@@H](CO)C(=O)N[C@@H](C)C(=O)N[C@@H](C)C(N)=O)NC(=O)[C@H](CC2CCC2)NC(=O)C(C)(C)NC(=O)[C@H](C)NC(=O)[C@H](Cc2c[nH]c3ccccc23)NC(=O)[C@H](Cc2ccc(O)cc2)NC(=O)[C@H](CCC(=O)O)NC1=O)[C@@H](C)O [MP-171] | > 50000 nM | 34 µM (≈ 65.5 µg/mL) | 195 nM | 222 A^2 | 3 | – | – | – | – | – | – |
| CC(=O)N[C@@H](CCCCN=[N+]=[N-])C(=O)NCCC(=O)N[C@@H](CC(C)C)C(=O)N[C@H](C(=O)N[C@@H](Cc1ccccc1)C(=O)N[C@]1(C)CCCCCCC=CCCC[C@@](C)(C(=O)NC(C)(C)C(=O)N[C@@H](C)C(=O)N[C@@H](C)C(N)=O)NC(=O)[C@H](CC2CCC2)NC(=O)[C@H](CCC(N)=O)NC(=O)[C@H](C)NC(=O)[C@H](Cc2c[nH]c3ccccc23)NC(=O)[C@H](Cc2ccc(O)cc2)NC(=O)[C@H](CCC(=O)O)NC1=O)[C@@H](C)O [MP-172] | – | 140 µM (≈ 276 µg/mL) | 123 nM | 225 A^2 | 3.17 | – | – | – | – | – | – |
| CC(=O)N[C@@H](CCCCN=[N+]=[N-])C(=O)NCCC(=O)N[C@@H](CC(C)C)C(=O)N[C@H](C(=O)N[C@@H](Cc1ccccc1)C(=O)N[C@]1(C)CCCCCCC=CCCC[C@@](C)(C(=O)N[C@@H](CO)C(=O)N[C@@H](C)C(=O)N[C@@H](C)C(N)=O)NC(=O)[C@H](CC2CCC2)NC(=O)[C@H](CCC(N)=O)NC(=O)[C@H](CCC(=O)O)NC(=O)[C@H](Cc2c[nH]c3ccccc23)NC(=O)[C@H](Cc2ccc(O)cc2)NC(=O)[C@H](CCC(=O)O)NC1=O)[C@@H](C)O [MP-180] | > 50000 nM | 93 µM (≈ 189 µg/mL) | 732 nM | 235 A^2 | 2.38 | – | – | – | – | – | – |
| CC(=O)N[C@@H](CCCCN=[N+]=[N-])C(=O)NCCC(=O)N(C)[C@@H](CC(C)C)C(=O)N[C@H](C(=O)N[C@@H](Cc1ccccc1)C(=O)N[C@]1(C)CCCCCCC=CCCC[C@@](C)(C(=O)N[C@@H](CO)C(=O)N[C@@H](C)C(=O)N[C@@H](C)C(N)=O)NC(=O)[C@H](CC2CCC2)NC(=O)[C@H](CCC(N)=O)NC(=O)[C@H](C)NC(=O)[C@H](Cc2c[nH]c3ccccc23)NC(=O)[C@H](Cc2ccc(O)cc2)NC(=O)[C@H](CCC(=O)O)NC1=O)[C@@H](C)O [MP-189] | > 50000 nM | 122 µM (≈ 242 µg/mL) | 865 nM | 226 A^2 | 3.04 | – | – | – | – | – | – |
| CC(=O)N[C@@H](CCCCN=[N+]=[N-])C(=O)NCCC(=O)N[C@@H](CC(C)C)C(=O)N(C)[C@H](C(=O)N[C@@H](Cc1ccccc1)C(=O)N[C@]1(C)CCCCCCC=CCCC[C@@](C)(C(=O)N[C@@H](CO)C(=O)N[C@@H](C)C(=O)N[C@@H](C)C(N)=O)NC(=O)[C@H](CC2CCC2)NC(=O)[C@H](CCC(N)=O)NC(=O)[C@H](C)NC(=O)[C@H](Cc2c[nH]c3ccccc23)NC(=O)[C@H](Cc2ccc(O)cc2)NC(=O)[C@H](CCC(=O)O)NC1=O)[C@@H](C)O [MP-190] | > 50000 nM | 116 µM (≈ 229 µg/mL) | 420 nM | 219 A^2 | 2.73 | – | – | – | – | – | – |
| CC(=O)N[C@@H](CCCCN=[N+]=[N-])C(=O)NCCC(=O)N[C@@H](CCCNC(=N)N)C(=O)N[C@H](C(=O)N[C@@H](Cc1ccccc1)C(=O)N[C@]1(C)CCCCCCC=CCCC[C@@](C)(C(=O)N[C@@H](CCCCN)C(=O)N[C@@H](C)C(=O)N[C@@H](C)C(N)=O)NC(=O)[C@H](CC2CCC2)NC(=O)[C@H](CCCNC(=N)N)NC(=O)[C@H](C)NC(=O)[C@H](Cc2c[nH]c3ccccc23)NC(=O)[C@H](Cc2ccc(O)cc2)NC(=O)[C@H](CCC(=O)O)NC1=O)[C@@H](C)O [MP-537] (Ac-[Lys(N3)][βAla]RTF[R8]EYWAR[Cba][S5]KAA-NH2; staple 6-13) | 7290 nM | 140 µM (≈ 292 µg/mL) | 87.9 nM | 224 A^2 | 2.48 | – | – | – | – | – | – |
| CC(=O)N[C@@H](CCCCN=[N+]=[N-])C(=O)NCCC(=O)N[C@@H](CCCNC(=N)N)C(=O)N[C@H](C(=O)N[C@@H](Cc1ccccc1)C(=O)N[C@]1(C)CCCCCCC=CCCC[C@@](C)(C(=O)N[C@@H](CO)C(=O)N[C@@H](C)C(=O)N[C@@H](C)C(N)=O)NC(=O)[C@H](CC2CCC2)NC(=O)[C@H](CCCNC(=N)N)NC(=O)[C@H](C)NC(=O)[C@H](Cc2c[nH]c3ccccc23)NC(=O)[C@H](Cc2ccccc2)NC(=O)[C@H](CCC(=O)O)NC1=O)[C@@H](C)O [MP-538] (Ac-[Lys(N3)][βAla]RTF[R8]EFWAR[Cba][S5]SAA-NH2; staple 6-13) | 6780 nM | 5 µM (≈ 10.1 µg/mL) | 230 nM | 223 A^2 | 3.16 | – | – | – | – | – | – |
| CC(=O)N[C@@H](CCCCN=[N+]=[N-])C(=O)NCCC(=O)N[C@@H](CCCNC(=N)N)C(=O)N[C@H](C(=O)N[C@@H](Cc1ccccc1)C(=O)N[C@]1(C)CCCCCCC=CCCC[C@@](C)(C(=O)N[C@@H](CO)C(=O)N[C@@H](CCCNC(=N)N)C(=O)N[C@@H](C)C(N)=O)NC(=O)[C@H](CC2CCC2)NC(=O)[C@H](CCC(N)=O)NC(=O)[C@H](CCCNC(=N)N)NC(=O)[C@H](Cc2c[nH]c3ccccc23)NC(=O)[C@H](Cc2ccc(O)cc2)NC(=O)[C@H](CCC(=O)O)NC1=O)[C@@H](C)O [MP-539] (Ac-[Lys(N3)][βAla]RTF[R8]EYWRQ[Cba][S5]SRA-NH2; staple 6-13) | 13400 nM | 97.5 µM (≈ 213 µg/mL) | 293 nM | 222 A^2 | 2.4 | – | – | – | – | – | – |
| CC(=O)N[C@@H](CCCCN=[N+]=[N-])C(=O)NCCC(=O)N[C@@H](Cc1ccc(O)cc1)C(=O)N[C@H](C(=O)N[C@@H](Cc1ccccc1)C(=O)N[C@]1(C)CCCCCCC=CCCC[C@@](C)(C(=O)N[C@@H](CO)C(=O)N[C@@H](C)C(=O)N[C@@H](C)C(N)=O)NC(=O)[C@H](CC2CCC2)NC(=O)[C@H](Cc2c[nH]c3ccccc23)NC(=O)[C@H](C)NC(=O)[C@H](Cc2c[nH]c3ccccc23)NC(=O)[C@H](Cc2ccc(O)cc2)NC(=O)[C@H](Cc2c[nH]c3ccccc23)NC1=O)[C@@H](C)O [MP-540] (Ac-[Lys(N3)][βAla]YTF[R8]WYWAW[Cba][S5]SAA-NH2; staple 6-13) | > 50600 nM | 2 µM (≈ 4.27 µg/mL) | 94.2 nM | 253 A^2 | 3.67 | – | – | – | – | – | – |
| CC(=O)N[C@@H](CCCCN=[N+]=[N-])C(=O)NCCC(=O)N[C@@H](CCCNC(=N)N)C(=O)N[C@H](C(=O)N[C@@H](Cc1ccccc1)C(=O)N[C@]1(C)CCCCCCC=CCCC[C@@](C)(C(=O)N[C@@H](CO)C(=O)N[C@@H](C)C(=O)N[C@@H](CC(C)C)C(N)=O)NC(=O)[C@H](CC2CCC2)NC(=O)[C@H](CCC(N)=O)NC(=O)[C@H](CC(C)C)NC(=O)[C@H](Cc2c[nH]c3ccccc23)NC(=O)[C@H](Cc2ccc(O)cc2)NC(=O)[C@H](CCC(=O)O)NC1=O)[C@@H](C)O [MP-541] (Ac-[Lys(N3)][βAla]RTF[R8]EYWLQ[Cba][S5]SAL-NH2; staple 6-13) | > 50600 nM | 4 µM (≈ 8.39 µg/mL) | 210 nM | 224 A^2 | 3.58 | – | – | – | – | – | – |
| CC(=O)N[C@@H](CCCCN=[N+]=[N-])C(=O)NCCC(=O)N[C@@H](CC(C)C)C(=O)N[C@H](C(=O)N[C@@H](Cc1ccccc1)C(=O)N[C@]1(C)CCCCCCC=CCCC[C@@](C)(C(=O)N[C@@H](C)C(=O)N[C@@H](C)C(=O)N[C@@H](C)C(N)=O)NC(=O)[C@H](CC2CCC2)NC(=O)[C@H](CCC(N)=O)NC(=O)[C@H](C)NC(=O)[C@H](Cc2c[nH]c3ccccc23)NC(=O)[C@H](Cc2ccc(O)cc2)NC(=O)[C@H](CCC(=O)O)NC1=O)[C@@H](C)O [MP-8956, AZIDE-ATSP-7041 (S12A)] (Ac-[Lys(N3)][βAla]LTF[R8]EYWAQ[Cba][S5]AAA-NH2; staple 6-13) | – | 108 µM (≈ 211 µg/mL) | – | 217 A^2 | – | > 50000 nM | > 50000 nM | 18.05% | 3.25% | 108 µM (≈ 211 µg/mL) | 411 nM |
